{"source": "paper PMC11363844", "about": "(Materials Today Bio, 2024)", "test_system": "E. coli ATCC 25922", "experiment": "Resistance development assay", "type": "cell-based"}
{"smiles": "CNC(C)C1CCC(N)C(OC2C(N)CC(N)C(OC3OCC(C)(O)C(NC)C3O)C2O)O1", "note": "(centres unmarked) [gentamicin]", "values": [{"measurement": "day on which resistance was demonstrated", "setting": "sequential culturing over 25 days", "result": "fifth"}, {"measurement": "fold increase of MIC value", "setting": "sequential culturing, by the 23rd day", "result": 64, "unit": "fold"}]}
